Results from PubChem BioAssay (NCI).
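A five-concentration, 48-hour dose response in 96-well plates underlies each endpoint, interpolated linearly between surrounding concentrations. Here, GI50 denotes the concentration required for 50% inhibition of growth. TGI denotes the concentration required for complete inhibition of growth.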

Tests used:
Experiment in all cases: DTP human tumour cell line panel, 48 h
XF 498 CNS = tested on: XF 498 CNS
DMS 114 small cell lung = tested on: DMS 114 small cell lung
DLD-1 colon = tested on: DLD-1 colon
DMS 273 small cell lung = tested on: DMS 273 small cell lung
M19-MEL melanoma = tested on: M19-MEL melanoma
HOP-18 NSCLC = tested on: HOP-18 NSCLC
RXF-631 renal = tested on: RXF-631 renal
MDA-N = tested on: MDA-N

Structure (SMILES) | TGI (XF 498 CNS) [µM] | TGI (DMS 114 small cell lung) [µM] | TGI (DLD-1 colon) [µM] | TGI (DMS 273 small cell lung) [µM] | TGI (M19-MEL melanoma) [µM] | TGI (HOP-18 NSCLC) [µM] | TGI (RXF-631 renal) [µM] | GI50 (MDA-N) | TGI (MDA-N)
Cc1nn(C)c(=S)n(C)c1=O | 5.31 | 0.842 | > 100 | 11 | > 100 | 4.89 | – | – | –
COC(=O)c1ccccc1N=Cc1ccc(N(CCC#N)S(=O)(=O)c2ccccc2)cc1 | > 100 | – | > 100 | > 100 | > 100 | > 100 | > 100 | – | –
COC(=O)C(=O)C(C#N)c1ccc(Cl)c(Cl)c1 (stereo unspecified) | > 100 | – | > 100 | > 100 | > 100 | – | > 100 | – | –
COc1ccc(/C=C/C(C(=O)O)C(=O)O)cc1 | > 100 | > 100 | > 100 | > 100 | > 100 | – | – | – | –
CN(Cc1ccccc1)C1(N(C)Cc2ccccc2)CC1 | > 100 | > 100 | > 100 | > 100 | > 100 | > 100 | – | – | –
C=CCNC(=S)OCCCCCCCCCC | 29.7 | 32.1 | 30.7 | 37.3 | 32.5 | 51.8 | – | – | –
C=C1C(=O)O[C@H]2[C@H]1CC(=O)/C(C)=C\CC[C@@]1(C)O[C@@H]21 | – | – | – | – | – | – | – | 3.58 µg/mL | 7.87 µg/mL
COc1ccc(CCC2NCCc3cc(OC)c(OC)cc32)cc1 (stereo unspecified) | > 100 | – | > 100 | – | – | > 100 | – | – | –
N#Cc1nc(Nc2ccc([N+](=O)[O-])cc2)sc1N | > 100 | – | > 100 | > 100 | > 100 | > 100 | > 75 | – | –
COC1(OC)c2ccccc2C2(O)c3ccccc3C(=O)C12 (stereo unspecified) | 58.8 | > 100 | – | > 100 | > 100 | > 100 | – | – | –
O=C(/C=C/c1ccc(Cl)cc1)c1ccncc1 | – | > 100 | > 100 | > 100 | 68.7 | > 100 | > 100 | – | –
O=C(O/N=C1/CCCC/C1=C\c1ccccc1)c1ccc(Cl)cc1 | 48.1 | – | > 100 | > 100 | > 100 | > 100 | – | – | –
CCN1CCCCC(=N\O)/C(=N/O)CCCC1 | – | – | – | – | – | – | – | – | > 100 µM
Cn1cnc([N+](=O)[O-])c1Sc1nnc(C(F)(F)F)n1C | – | > 100 | 33.5 | 87.5 | 37.2 | 76.2 | 39.6 | – | –
O=[N+]([O-])c1ccc2c(c1)S(=O)c1ccccc1-2 (stereo unspecified) | – | – | – | – | – | – | – | – | > 100 µM
COP1(=S)OCC2CCC[C@@H]2O1 (stereo partly specified) | – | – | – | – | – | – | – | – | > 100 µM
C=CCC(C)(C(=O)NCCC)C(=O)c1ccccc1O (stereo unspecified) | – | > 100 | > 100 | > 100 | > 100 | > 100 | – | – | –
O=C1C=C(Nc2nc(C(=O)O)cc(=O)[nH]2)c2ccccc2C1=O | – | – | – | – | – | – | – | – | > 100 µM
CC(C)CC(=O)CC(O)C(Cl)(Cl)Cl (stereo unspecified) | – | – | – | – | – | – | – | – | > 100 µM

Structure (SMILES) | TGI (XF 498 CNS) [µM] | TGI (DMS 114 small cell lung) [µM] | TGI (DLD-1 colon) [µM] | TGI (DMS 273 small cell lung) [µM] | TGI (M19-MEL melanoma) [µM] | TGI (HOP-18 NSCLC) [µM] | TGI (RXF-631 renal) [µM] | GI50 (MDA-N) | TGI (MDA-N)
CC1=N/C(=C\c2cccc3ccccc23)C(=O)O1 | – | > 100 | > 100 | – | > 100 | > 100 | > 100 | – | –
O=c1c2cccnc2ncn1CCCN1CCOCC1 | > 100 | > 100 | > 100 | > 100 | > 100 | – | – | – | –
Cc1cccc(N2C(=O)C(=O)C(c3nc4ccccc4s3)C(=O)C2=O)c1C | – | > 100 | > 100 | > 100 | > 100 | > 100 | > 100 | – | –
N#CC(=S)Nc1ccc(F)cc1 | – | – | – | – | – | – | – | – | > 100 µM
Cc1nc2ccc(NCCN(C)C)c3c(=O)c4cc(O)ccc4n1c23 | 11.2 | 2.14 | – | 1.76 | 9.27 | – | 1.96 | – | 13.7 µM
N#Cc1ccc2oc3ccc(C#N)cc3c(=O)c2c1 | – | – | – | – | – | – | – | – | 31.9 µM
CN(C)CCNC(=O)c1cccc2c1nc(-c1ccccn1)c1ccccc12 | – | 36.3 | 31 | 29.9 | 32 | 96.8 | – | – | –
CC(C)c1ccc(O)c(=O)cc1 | > 100 | 11.5 | > 100 | > 46.3 | > 70.9 | > 56.1 | – | 22.7 µM | –
NC(=S)N/N=C(\C(=O)Nc1ccc(Cl)c(Cl)c1)C1=NN(c2ccccc2)C(c2cccc([N+](=O)[O-])c2)CC1=O (stereo unspecified) | > 100 | 71.2 | 47.5 | 45.2 | 50.5 | > 100 | > 100 | – | –
O=C1CCC2CCOc3ccc(O)c1c32 (stereo unspecified) | – | > 100 | > 100 | > 100 | > 100 | – | > 100 | – | –
CC1=C(c2cc(C(=O)Nc3cccc(C(F)(F)F)c3)nc(NC#N)n2)Sc2ccccc2N1 | – | > 100 | > 100 | > 100 | > 100 | > 100 | > 100 | – | –
Cc1ccc([Se][Se]c2ccc(C)cc2)cc1 | 40.8 | 57 | > 100 | 32.4 | 40.6 | 33.5 | 77.9 | – | –
CC(C)(CCC(C)(C)c1ccccc1)c1ccccc1 | – | – | – | – | – | – | – | – | 56.8 µM
Oc1ccc(SCc2ccc(NCc3ccccc3)cc2)cc1 | – | – | – | – | – | – | – | – | 57.4 µM
CCc1cccc(C(C)CC)c1NC(=O)CC1C(=O)Nc2ccccc2S1=O (stereo unspecified) | – | > 100 | > 100 | > 100 | > 100 | – | > 100 | – | –
CCc1nc(N)nc(N)c1-c1ccc(Cl)c(N=NN(C)C)c1 | – | – | – | – | – | – | – | – | > 100 µM
O=C1CC(c2c[nH]c3ccccc23)C(=O)N1c1ccccc1 (stereo unspecified) | > 100 | – | > 100 | > 100 | > 100 | – | – | – | –
CC1=N/C(=C\c2ccc([N+](=O)[O-])cc2)C(=O)O1 | – | > 100 | > 100 | – | > 100 | > 100 | > 100 | – | –
CS(=O)(=O)CS(=O)CS(=O)CS(=O)CC(NC(=O)CCC(N)C(=O)O)C(=O)O (stereo unspecified) | – | – | – | – | – | – | – | – | > 100 µM
